Among the data in the NIST ThermoML archive (doi:10.1016/j.jct.2011.10.002) are speed of sound and mass density values, retold here.

The conditions of this data set: 298.15 K, 101.33 kPa, Liquid; for speed of sound: Sing-around technique in a fixed-path interferometer; for mass density: Vibrating tube method.

Numbers after ± are expanded uncertainties.

A word on the speed of sound: it is how fast a sound wave travels through the sample. A word on the mass density: it is the mass of a sample divided by its volume. For `Cc1ccccc1N` [2-methylaniline], the speed of sound amounted to 1602.6 ± 1.3 m/s and the mass density was determined as 994.351 ± 0.23 kg/m3.
On the same counts, the results for `C1CCOCC1` [tetrahydropyran] are 1269.9 ± 2.1 m/s and 879.136 ± 0.7 kg/m3.
On the same counts, the results for `Cc1ccncc1` [4-methylpyridine] are 1431.5 ± 1.2 m/s and 950.179 ± 0.23 kg/m3.
For `Cc1ccccn1` [2-methylpyridine] the same measures were 1380.1 ± 2.1 m/s and 939.802 ± 0.77 kg/m3.
For the molecule `Cc1cccnc1` [3-methylpyridine], the speed of sound worked out at 1424 ± 1.2 m/s and the mass density came out at 952.002 ± 0.23 kg/m3.
